{"source": "paper PMC11928319", "about": "(Nature Plants, 2025)", "key": {"[1]": {"tested_on": "Arabidopsis wild type and efr mutant plants", "assay": "elf18-induced shoot growth inhibition, shoot weight", "assay_type": "in vivo, Arabidopsis thaliana", "details": "Arabidopsis Col-0, 1 µM, 2 weeks"}, "EFR": {"tested_on": "EFR", "assay": "Expression of EFR normalized to UBQ5 in roots (RT–qPCR) and pEFR::NLS–3*mVenus reporter", "assay_type": "in vivo, Arabidopsis thaliana", "details": "timepoint 1h, single samples", "procedure": "Axenic 14-day-old seedlings (see ‘Agar-based cultivation of axenic plants and co-cultivation with bacteria, bacterial supernatants and elicitors’) were submerged in 12 ml of 10 mM MgSO4 supplemented with 1 µM elicitor or bacteria, which were directly harvested from 0.5× TSB plates and resuspended in 10 mM MgSO4. Bacterial concentration was adjusted to OD600 = 1.5, if not indicated differently. For a heat-killed bacterial inoculum, resuspended bacteria were incubated in boiling water for 30 min. […] For co-exposure to flg22 and AtPep1, seedlings were submerged as described for 1 h, residual liquid was removed and the plants were incubated in a cultivation chamber for 4 h prior to harvesting.\nFor reverse transcription quantitative PCR (RT–qPCR), roots of eight to ten plants grown on one square plate were pooled for one sample. Frozen roots were homogenized using a TissueLyser II (QIAGEN, 2 × 29 pps for 40 s) with pre-cooled adaptors. RNA was extracted using the Plant RNA Kit (my-Budget) according to the user manual and eluted in 35 µl of elution buffer. RNA concentrations were measured using a spectrometer (Nanodrop OneC Microvolume UV-Vis Spectrophotometer). Complementary DNA was synthesized from 300–500 ng of RNA using the RevertAid H Minus First Strand cDNA Synthesis Kit (ThermoScientific) in a 20-µl reaction according to the user manual. In brief, 1 µl of oligo(dT)18 primer was mixed with RNA in a final volume of 12 µl and incubated at 65 °C for 5 min. Afterwards, 4 µl of 5× Reaction buffer, 2 µl of 10 mM dNTPs, 1 µl of RiboLock RNase Inhibitor (20 U µl^−1) and 1 µl of RevertAid H Minus M-MuLV Reverse Transcriptase (200 U µl^−1) were added, and the reaction was incubated at 42 °C for 60 min followed by heat inactivation at 70 °C for 5 min. cDNA was diluted 1:10 prior to qPCR using the iQ SYBR Green Supermix (Bio-Rad). […]"}}, "note": "Values joined by “and” are separate entries in the source; they are usually repeats but may differ in a detail not shown here. Identical values can stand only once.", "data": [{"substance": "Ac-SKEKFERTKPHVNVGTIG [elf18]", "values": [{"measurement": "shoot growth (shoot weight) upon peptide treatment", "setting": "[1]", "result": "Shoot growth inhibition"}, {"measurement": "EFR fold_change", "setting": "EFR; Replicate I", "result": "1.977 and 2.517 and 1.4157 and 1.558"}, {"measurement": "EFR fold_change", "setting": "EFR; Replicate II", "result": "1.051 and 1.166 and 0.9721 and 1.1066"}, {"measurement": "EFR fold_change", "setting": "EFR; Replicate III", "result": "1.492 and 1.557 and 2.228 and 1.3126"}]}]}
